Measurements published in patent US11225469B2, “Inhibitors of phosphoglycerate dehydrogenase (PHGDH) and uses thereof” (Whitehead Institute for Biomedical Research, priority 2015, dated 2022).

Biological target: PHGDH (Homo sapiens (Human), UniProt O43175)
Experiment: PHGDH inhibition, coupled assay with PSAT1/PSPH and diaphorase/resazurin readout
Assay type: biochemical
Settings: Table E9; mixture with PSAT1, PSPH; diaphorase/resazurin reporter

Chain of PHGDH (O43175 whole entry): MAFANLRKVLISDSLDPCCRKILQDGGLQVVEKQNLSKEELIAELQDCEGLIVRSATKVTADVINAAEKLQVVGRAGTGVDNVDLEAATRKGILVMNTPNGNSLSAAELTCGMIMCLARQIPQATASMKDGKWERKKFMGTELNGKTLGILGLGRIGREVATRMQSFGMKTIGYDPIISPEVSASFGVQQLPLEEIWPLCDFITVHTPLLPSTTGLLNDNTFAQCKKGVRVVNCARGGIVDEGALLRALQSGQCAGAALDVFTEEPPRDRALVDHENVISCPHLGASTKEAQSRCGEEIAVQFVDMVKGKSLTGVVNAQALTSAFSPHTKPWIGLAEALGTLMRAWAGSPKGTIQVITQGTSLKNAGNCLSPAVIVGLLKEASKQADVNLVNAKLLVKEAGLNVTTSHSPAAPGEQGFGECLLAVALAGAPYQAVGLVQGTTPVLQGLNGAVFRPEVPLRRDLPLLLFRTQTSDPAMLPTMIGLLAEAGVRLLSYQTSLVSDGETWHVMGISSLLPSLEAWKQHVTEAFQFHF

Structure (SMILES) | IC50
O=[N+]([O-])c1cc(C(F)(F)F)ccc1N1CCN(C(=S)Nc2cc(Cl)ccn2)CC1 [Compound 201] | 10 to 20 µM
FC(F)(F)c1cccc(N2CCN(C(=S)Nc3cnccn3)CC2)c1 [Compound 128] | ≥ 20 µM
Cc1cc(C)nc(NC(=S)N2CCN(c3cc(Cl)cc(Cl)c3)CC2)c1 [Compound 65] | 5 to 10 µM
Cc1ccnc(NC(=S)NC2CN(c3cccc(C(F)(F)F)c3)C2)c1 [Compound 47] | ≥ 20 µM
Cc1cc(C)nc(NC(=S)N2CCN([S+](=O)([O-])c3cccc(C(F)(F)F)c3)CC2)c1 [Compound 100] | < 5 µM
Cc1cc(C)nc(NC(=S)N2CCN(Cc3ccccc3C(F)(F)F)CC2)c1 [Compound 278] | 10 to 20 µM
FC(F)(F)c1cccc(N2CCN(C(=S)Nc3nc[nH]n3)CC2)c1 [Compound 233] | 5 to 10 µM
Cc1cc(C)nc(NC(=S)N2CCN(Cc3c(F)cccc3Cl)CC2)c1 [Compound 94] | 5 to 10 µM
Cc1ccnc(NC(=S)N[C@H]2CCN(c3cccc(C(F)(F)F)c3)C2)c1 [Compound 43] | ≥ 20 µM
Cc1ccnc(NC(=S)N2CCc3cc(C(F)(F)F)ccc3C2)c1 [Compound 61] | 10 to 20 µM
Cc1ccc(N2CCN(C(=S)Nc3cc(C)ccn3)CC2)cc1 [Compound 11] | ≥ 20 µM
Cc1cc(C)nc(NC(=S)N2CCN(c3ccsc3)CC2)c1 [Compound 166] | ≥ 20 µM
Cc1cc(C)nc(NC(=S)N2CCN(c3ccc4cn(C)nc4c3)CC2)c1 [Compound 129] | ≥ 20 µM
Cc1ccnc(NC(=S)N2CCN(c3ccc(C(F)(F)F)cc3[N+](=O)[O-])CC2)c1 [Compound 174] | 5 to 10 µM
Cc1cc(C)nc(NC(=S)N2CCN(c3cccc4cnccc34)CC2)c1 [Compound 147] | 10 to 20 µM
Cc1cc(C)nc(NC(=S)N2CCN(Cc3ccc(C(F)(F)F)cc3)[C@@H](C)C2)c1 [Compound 297] | < 5 µM
Cc1cc(C)nc(NC(=S)N2CCN(CC3CC3)CC2)c1 [Compound 301] | ≥ 20 µM

Second part, the compound after the results:

IC50 | Structure (SMILES)
10 to 20 µM | Cc1cc(C)nc(NC(=S)N2CCN(c3nccc4occc34)CC2)c1 [Compound 103]
10 to 20 µM | Cc1cc(C)nc(NC(=S)N2CCN(c3ccc(Cl)cc3[S+](C)(=O)[O-])CC2)c1 [Compound 115]
≥ 20 µM | Cc1ccnc(NC(=S)N2CCN(c3ccc(Cl)cc3)CC2)c1 [Compound 8]
≥ 20 µM | CC(=O)c1ccc(N2CCN(C(=S)Nc3cc(C)ccn3)CC2)cc1 [Compound 14]
10 to 20 µM | Cc1cc(C)nc(NC(=S)N2CCN(c3nsc4ccccc34)CC2)c1 [Compound 108]
< 5 µM | FC(F)(F)c1cccc(N2CCN(C(=S)Nc3nc(-c4ccccc4)c[nH]3)CC2)c1 [Compound 230]
10 to 20 µM | Cc1cc(C)nc(NC(=S)N2CCN(c3ccc(F)c(F)c3F)CC2)c1 [Compound 208]
5 to 10 µM | Cc1cc(C)nc(NC(=S)N2CCN(c3ccc(C(F)(F)F)cc3C(F)(F)F)CC2)c1 [Compound 209]
≥ 20 µM | S=C(Nc1cc(Cl)ccn1)N1CCN(c2ccc3ccccc3n2)CC1 [Compound 203]
< 5 µM | Cc1cccc2nc(NC(=S)N3CCN(c4cccc(C(F)(F)F)c4)CC3)[nH]c12 [Compound 247]
≥ 20 µM | Cc1cc(C)nc(NC(=S)N2CCN(c3ccc4nncn4c3)CC2)c1 [Compound 161]
< 5 µM | Cc1cc(C)nc(NC(=S)N2CCN(c3nccc(C(F)(F)F)n3)CC2)c1 [Compound 117]
10 to 20 µM | Cc1cc(C)nc(NC(=S)N2CCN(Cc3ccccc3Br)CC2)c1 [Compound 285]
≥ 20 µM | Cc1cc(C)nc(NC(=S)N2CCN(c3nccc4ccsc34)CC2)c1 [Compound 156]
≥ 20 µM | Cc1cc(C)nc(NC(=S)N2CCN(c3nc(C)cnc3C)CC2)c1 [Compound 104]
≥ 20 µM | CC(Cc1ccccc1)C(=O)Nc1ccc(Cl)cc1C(=O)O (centres unmarked) [Compound 20]
10 to 20 µM | Cc1cc(C)nc(NC(=S)N2CCN(c3cccc4ccncc34)CC2)c1 [Compound 149]
≥ 20 µM | Cc1ccnc(NC(=S)NCCN(C)c2cccc(C(F)(F)F)c2)c1 [Compound 21]
